According to a melting point compilation (Tetko et al.; mined from patent text by program, amines drawn as free bases though some values may be those of a salt):

| SMILES | melting point |
| --- | --- |
| CCN(CC)S(=O)(=O)c1ccccc1S(=O)(=O)NC(=O)Nc1nc(C)cc(OC)n1 | 170 to 172 °C |
| O=C1CCN(c2cc3c(cc2-c2ccccc2F)NC(=O)CC(c2cccc(-n4ccnc4)c2)=N3)CC1 | 230 °C |
| COc1ccc(C2(O)C(=O)N(Cc3ccc(Cl)cc3)c3ccccc32)cn1 (configuration not stated) | 182 to 184 °C |
| C=C(c1cc(C(C)(C)C)cc2c1CCC2(C)C)c1sccc1C(=O)O | 148 to 150 °C |
| Cc1nn(-c2c(Cl)cc(C(F)(F)F)cc2Cl)nc1Br | 82 °C |
| CC(=O)OCC(=O)C1(OC(C)=O)C(C)CC2C3CC(C)C4=CC(=O)C=CC4(C)C3C(O)CC21C (configuration not stated) | 124 to 126 °C |
| COc1nnc2n1C=Cc1cc(C)ccc1C2 | 148 to 149 °C |
| Nc1nc(N)c(-c2ccc(Cl)cc2Cl)c(CF)n1 | 210 to 211 °C |
| Cc1cc2c(NCc3ccc4c(c3)OCO4)nc(Cl)nc2s1 | 162 °C |
| Cc1cc(C(N)=O)ncc1C(c1c(F)ccc(F)c1F)S(=O)(=O)CCC(F)F (configuration not stated) | 192 °C |
| CCCc1c(OCCCOc2ccc(CC(=O)O)cc2F)ccc(C(C)=O)c1O | 121 to 123 °C |
| CN1C(=O)CN=C(c2ccccc2F)c2c1ccc(NC(=O)Nc1ccc(Cl)cc1)c2Cl | 285 °C |
| C[C@@H]1CN(c2cccc(-c3cn[nH]c3N)c2)C[C@H](C)O1 | 158 to 160 °C |
| COC[C@H]1CN(c2ccc([C@H]3CC[C@H](C#N)CC3)cc2)C(=O)O1 | 174 °C |
| O=C(O)C=CC(=O)Nc1ccc(C(=O)O)cc1 | 217 to 219 °C |
| c1ccc(C2=NOC3(CCNCC3)C2)cc1 | 115 °C |
| Cc1ncc([N+](=O)[O-])n1CCOS(C)(=O)=O | 152 to 153 °C |
| CCOC(=O)N1CCC(NC(=S)Nc2cccnc2NCc2ccco2)CC1 | 133 °C |
| O=C(O)Cc1c[nH]c(-c2cc3nc(C(=O)O)c(=O)[nH]c3cc2[N+](=O)[O-])n1 | > 300 °C |

| SMILES | melting point |
| --- | --- |
| COc1nccnc1C1=CN2CCC1CC2 | 95 to 96 °C |
| OCc1cc(Br)cc(I)c1 | 110 to 112 °C |
| O=C(NCc1ccc(Cl)cc1)c1cnc2c(F)cc(CCCCCO)cc2c1O | 193 to 195 °C |
| CCOC(=O)c1nn(-c2ccc(Cl)cc2Cl)c(-c2cccs2)c1C | 121 to 122 °C |
| O=C(O)c1cccc(CO[N+](=O)[O-])c1 | 123 to 125 °C |
| COC(=O)c1cc2c(nc1C(=O)OC)N(C)CC2 | 132 to 133 °C |
| CCCCCCCCCCCC(=O)N[C@@H](C)C(=O)N[C@H](CCC(=O)OCc1ccccc1)C(N)=O | 169 °C |
| CC(=O)c1ccc(S(=O)(=O)NN2CCCCC2)cc1 | 137 to 139 °C |
| COC1CC2(C)C(CCC3C4CCC(C(=O)CBr)C4(C)CC(=O)C32)CC1O (configuration not stated) | 185 to 188 °C |
| COC(=O)c1ccc(Br)cc1Cl | 28 to 30 °C |
| O=C1N(Cc2ccccn2)c2ccc(Br)cc2C12COc1cc3c(cc12)OCCO3 (configuration not stated) | > 250 °C |
| CCCCCCCC(=O)c1[nH]c(=O)[nH]c1C | 220 to 221 °C |
| CCOC(=O)C=Cc1cc(-c2csc(-c3ccc(OCC)c(OCC)c3)n2)cc(C(=O)OCOC)c1OCOC | 94 to 96 °C |
| CCC(CC)n1nnc2c(Oc3c(C)cc(C)cc3C)nc(C)c(C)c21 | 127 to 129 °C |
| Cc1ccc(-n2nc(O)c3[nH]c4cc(Cl)cc(Cl)c4c(=O)c3c2=O)c(C)c1 | 335 to 336 °C |
| COc1ccc(C(C)CNC(=O)C(N)=O)cc1OC1CCCC1 (configuration not stated) | 175 to 176 °C |
| CC(=O)OC1CC2=CCC3C4CCC(C(C)CBr)C4(C)CCC3C2(C)C(OC(C)=O)C1 (configuration not stated) | 75 to 76 °C |
| O=C(CCCl)c1cc2c3c(c1)CCN3C(=O)CC2 | 154 to 155 °C |

Results, then the molecule that gave them:

| melting point | SMILES |
| --- | --- |
| 209 to 210 °C | O=C(O)c1ccc(NCCOc2ccc(F)cc2)cc1 |
| 91 to 92.5 °C | CN(C)CCC(=O)N1Cc2cccc3c2N(CC3)c2ccccc21 |
| 243 °C | COc1ccc2ncnc(N3CCc4ccc(Cl)cc43)c2c1 |
| 138 to 140 °C | CC1c2cc(F)ccc2-c2ccc(F)cc2N1C(=O)c1ccc(O)cc1 (configuration not stated) |
| 91 to 93 °C | CCCCc1ccc(C(=O)SCC2C(=O)OCC2c2ccccc2)cc1 (configuration not stated) |
| 224 to 225 °C | N#Cc1cc(NC(=O)c2cc3ccccc3s2)ccc1N1CCC(O)CC1 |
| 92 to 94 °C | O=C(O)C(Cc1cccc(F)c1)c1ccc(F)cc1 (configuration not stated) |
| 289 °C | Cc1cc(-c2ccc(C(F)(F)F)nc2)nc(-c2ccnc(-c3ccc(S(N)(=O)=O)s3)c2)n1 |
| 116 to 117 °C | COC1=C(OC)C(=O)c2ccccc2C1=O |
| 168 °C | CC(=CC(=O)c1cccnc1)NCC(O)COc1ccc(NC(=O)NC2CCCCC2)cc1 (configuration not stated) |
| 201 to 202 °C | CC(C(O)c1cc(F)c(OCc2ccccc2)c(F)c1)N1CCC(O)(c2ccc(C(F)(F)F)cc2)CC1 (configuration not stated) |
| 61 to 65 °C | CNc1ccc(CCc2ccc(OCc3ccccc3)c(OCc3ccccc3)c2)cc1 |
| 185 to 187 °C | N#Cc1cnc2cc(-c3cncc(CN4CCOCC4)c3)ccc2c1Nc1ccc(Oc2ccccc2)cc1 |
| 184 to 186 °C | COC(=O)c1nc2ccc(Cl)cc2n1Cc1ccccc1 |
| 107 to 109 °C | CSc1ccc(C2=CC(=O)C(C)(C)O2)cc1 |
| 121 to 123 °C | CCc1ccc(C(=O)c2c(N)sc3c2CCN(C(=O)OCc2ccccc2)C3)cc1 |
| 260 to 261 °C | CCOc1ccc(-c2nc(-c3cc(C=CC(=O)O)c(O)c(C(=O)O)c3)cs2)cc1OCC |
| 90 to 91 °C | O=C1NCC(Cc2ccccc2OCc2ccccc2)O1 (configuration not stated) |

| melting point | SMILES |
| --- | --- |
| 69 to 71 °C | CC(C)[C@H](NC(=O)CNC(=O)OCC1c2ccccc2-c2ccccc21)C(=O)O |
| 168 °C | CN(C)c1cc(CC(C#N)=CNc2ccccc2)cc(N(C)C)c1Cl |
| 184 to 186 °C | COC(=O)c1ccc(Cc2ccc(O)cc2)cn1 |
| 133 to 135 °C | COc1cccc(-c2ccc3nnn(Cc4ccc5ncccc5c4)c3n2)c1 |
| 42 to 44 °C | C=CC(C)(C)C(=O)COc1ccc(-c2ccccc2)cc1 |
| 49 °C | CCOC(=O)CC(=O)C=Cc1ccccc1 |
| 146 to 147 °C | Cc1c(CNCC2CCOCC2)[nH]c2ccc(NC(=O)c3ccc(OC[C@@H]4CCCO4)cc3)cc12 |
| 220 to 222 °C | CSc1nc(C)c(Cc2ccccc2)c(=O)[nH]1 |
| 137 to 138 °C | O=C(NCCO)c1cccc(-c2cccc3nn(Cc4ccc(F)cc4)cc23)c1 |
| 157 to 158 °C | O=C(Nc1ccc(C(=O)N2CCCCc3cc(Cl)ccc32)cn1)c1ccccc1OCCCCO |
| 247 to 249 °C | Cc1[nH]c(=O)c(C#N)cc1-c1ccc(OCCCC(=O)O)cc1 |
| 216 °C | Cc1onc(-c2ccc(-c3cscn3)cc2)c1-c1ccc(S(N)(=O)=O)c(F)c1 |
| 115 to 117 °C | CCOC(=O)CN1CCc2c(sc(N)c2C(=O)c2ccccc2)C1 |
| 96 °C | CCCCCc1ccc(-c2ccc(-c3cc(F)c(C(F)(F)Oc4cc(F)c(C(F)(F)F)c(F)c4)c(F)c3)c(F)c2)cc1 |
| 113 to 115 °C | COc1ccc(NC(=O)c2ccccc2Cl)cc1 |
| 179 to 182 °C | Cc1ccc2c(c1)C1CN(Cc3ccccc3)CCC1N2 (configuration not stated) |
| 148 °C | Cc1cc(C)n(O)c(=O)c1Cc1ccccc1 |
